Like-named read-outs stand apart in the source and are kept apart here.
How the values were obtained:
platelets = test: Example 4: platelet activation measured by flow cytometry; format: in vivo, human; conditions: P-selectin expression, 1 μM ADP
Procedure: The study involved 12 patients who met the criteria of being 18-75 years of age, having coronary artery disease (CAD) documented by a previous MI or coronary revascularization, and taking 81 mg of aspirin daily. […] Prohibited concomitant medications included strong and potent CYP3A inhibitors, simvastatin and lovastatin at doses more than 40 mg/day, omeprazole or esomeprazole, and digoxin. Use of non-steroidal anti-inflammatory agents was discouraged during study participation but not prohibited.
Each patient was administered a 30 μg/kg bolus of cangrelor followed immediately by a 2 hr infusion at a rate of 4.0 μg/kg/min. A loading dose of ticagrelor (180 mg) was given after 0.5 hr or 1.25 hr (n=6 for each). Blood for pharmacodynamic platelet function studies was taken after 0.5 or 1.25 hr (corresponding to the time of ticagrelor load, n=6 for each), and then at 1.75, 2, 2.25, 2.5, 2.75, 3, 4, and 5.25 hr. Patients were assigned randomly to receive either 6 (n=6) or 7 (n=6) doses of ticagrelor to be taken every 12 hours following the discontinuation of the infusion of cangrelor. On study day 5, each patient was administered a 30 μg/kg bolus of cangrelor followed immediately by a 2 hr infusion at a rate of 4.0 μg/kg/min. Blood for pharmacodynamic assessment was taken after 1 and 2 hr. Adverse events were queried throughout study participation that ended with a telephone interview performed on study day 10-12.
Pharmacodynamic assessment included light transmission aggregometry (LTA), VerifyNow® P2Y12 assay, vasodilator-stimulated phosphoprotein (VASP) index, and platelet activation measured with the use of flow cytometry. Assessment of LTA, VerifyNow®, and platelet activation with the use of flow cytometry was performed within 30 min of blood being taken. In the case of flow cytometry, samples were processed to fixation and then batched for analysis. For VASP, index samples were batched and processed as recommended by the vendor within 2 h of blood being taken. This approach limited the time from fixation of VASP index to flow analysis to less than 1 h.
LTA induced by 5 μM and 20 μM adenosine diphosphate (ADP) was quantified ex vivo (i.e. in non-adjusted platelet rich plasma). Platelet-poor plasma was set as 100% aggregation, and both maximal (peak) and terminal (at 300 s) aggregation were measured with a PAP4 aggregometer (BioData, Horsham, Pa.). VerifyNow® P2Y12 assay (Accumetrics Inc, San Diego, Calif.) that measures the effects of drugs on the P2Y12 receptor by activating platelets with prostaglandin El in addition to ADP was used in accordance with the instructions provided by the manufacturer. Platelet reactivity was expressed in P2Y12 reaction units (PRU). Activation of platelets was identified with the use of flow cytometry as previously described.^17. And to determine the VASP index, a commercially available kit (Diagnostica Stago, Inc, Parsippany NJ) was used. ^17 Schneider D J, Sobel B E. Streamlining the design of promising clinical trials: in-vitro testing of antithrombotic regimens and multiple agonists of platelet activation. Coron Artery Dis. 2009; 20:175-8.

platelet function = conditions: in vivo; cited from earlier work
[1] = tested on: patients undergoing percutaneous coronary intervention (PCI); test: Example 1: bleeding and adverse events through 48 hours;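 also: bleeding events compared through 48 h in the safety population, meaning patients given at least one study drug dose and grouped by treatment actually received, two-tailed tests at 0.05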
Procedure: The primary efficacy endpoint was the composite of mortality, myocardial infarction, or ischemia-driven revascularization at 48 hours. The primary analysis was performed on a modified intent-to-treat population. Confirmatory analyses were performed on an intent-to-treat population. Secondary endpoints included the individual rates of mortality, myocardial infarction, new Q-wave myocardial infarction, ischemia-driven revascularization, abrupt vessel closure, or stroke at 48 hours. Mortality at 30 days and 1 year was also recorded. The clinical events committee adjudicated myocardial infarction, Q-wave myocardial infarction, ischemia-driven revascularization, stent thromboses, and stroke (ischemic or hemorrhagic). The definition of stent thrombosis was similar to the Academic Research Consortium definition of definite stent thrombosis. After review of the prespecified analyses, two exploratory endpoints less reliant on periprocedural biomarker ascertainment were examined. The exploratory endpoints, which were composed of prespecified and adjudicated endpoints, were the composite of mortality, Q-wave myocardial infarction, or ischemia-driven revascularization and the composite of mortality, Q-wave myocardial infarction, or stent thrombosis. Bleeding and adverse events through 48 hours were compared.
All efficacy analyses were performed on the modified intent-to-treat population, defined as all randomized patients who received at least one dose of study drug and underwent the index PCI. All safety-related analyses were performed on the safety population, which included all patients who received at least one dose of assigned study drug. Patients in the safety analyses were assigned to a treatment arm based on treatment actually received, not as randomized. Intent-to-treat analyses are also presented for full disclosure of results. All statistical tests were two-tailed using a level of significance of 0.05. […] Logistic regression was also used to analyze the majority of the remaining secondary endpoints.

[2] = tested on: patients with atherosclerosis undergoing PCI; format: in vivo; conditions: for Agitation (Psychiatric disorders) / Chest Pain (General disorders and administration site conditions) / Diarrhea (Gastrointestinal disorders) / Dyspnea (Respiratory, thoracic, and mediastinal disorders) / Procedural Pain (Injury, poisoning, and procedural complications): treatment emergent adverse event
Procedure: The primary safety end point was severe bleeding not related to coronary-artery bypass grafting, according to the Global Use of Strategies to Open Occluded Coronary Arteries (GUSTO) criteria, at 48 hours. Several other bleeding definitions were also applied.

[3] = Study Day 1, 1.75 h, Ticagrelor at 0.5 hr
[4] = Study Day 1, 1.75 h, Ticagrelor at 1.25 hr
[5] = Study Day 1, 2.0 h, Ticagrelor at 0.5 hr
[6] = Study Day 1, 2.0 h, Ticagrelor at 1.25 hr
[7] = Study Day 1, reference 0.5/1.25 h, All
[8] = Study Day 1, reference 0.5/1.25 h, Ticagrelor at 0.5 hr
[9] = Study Day 1, reference 0.5/1.25 h, Ticagrelor at 1.25 hr
[10] = Study Day 5, 1.0 h, Ticagrelor 6 doses
[11] = Study Day 5, 1.0 h, Ticagrelor 7 doses
[12] = Study Day 5, 2.0 h, Ticagrelor 6 doses
[13] = Study Day 5, 2.0 h, Ticagrelor 7 doses
[14] = 48-hour, safety population, cangrelor vs placebo
[15] = 48 hours, Non-CABG Related Bleeding, Safety, Cangrelor vs Clopidogrel
[16] = 48 hours, Non-CABG Related Bleeding, Safety, n/N
[17] = 48 hours, Non-CABG Related Bleeding, Safety, rate in parentheses
[18] = 48 hours, Non-CABG Related, Safety, Cangrelor vs Clopidogrel
[19] = 48 hours, Non-CABG Related, Safety, n/N
[20] = 48 hours, Non-CABG Related, Safety, rate in parentheses
[21] = 48 hours, non-CABG-related, safety population, Cangrelor vs Clopidogrel
[22] = 48 hours, safety population, n/N

CSCCNc1nc(SCCC(F)(F)F)nc2c1ncn2[C@@H]1O[C@H](COP(=O)(O)OP(=O)(O)C(Cl)(Cl)P(=O)(O)O)[C@@H](O)[C@H]1O [Cangrelor, cangrelor]
Flow Cytometry IPR (platelets; Study Day 1, 1.75 h, All): 94 ± 5
Flow Cytometry PR (platelets; Study Day 1, 1.75 h, All): 2.5 ± 1
Flow Cytometry IPR (platelets; [3]): 96 ± 2
Flow Cytometry PR (platelets; [3]): 2 ± 0.6
Flow Cytometry IPR (platelets; [4]): 92 ± 7
Flow Cytometry PR (platelets; [4]): 3 ± 1.1
Flow Cytometry IPR (platelets; Study Day 1, 2.0 h, All): 89 ± 30
Flow Cytometry PR (platelets; Study Day 1, 2.0 h, All): 3.8 ± 4.5
Flow Cytometry IPR (platelets; [5]): 96 ± 2
Flow Cytometry PR (platelets; [5]): 2.3 ± 0.8
Flow Cytometry IPR (platelets; [6]): 83 ± 28
Flow Cytometry PR (platelets; [6]): 5.3 ± 6.3
Flow Cytometry IPR (platelets; [7]): 94 ± 4
Flow Cytometry PR (platelets; [7]): 2.8 ± 1.2
Flow Cytometry IPR (platelets; [8]): 94 ± 5
Flow Cytometry PR (platelets; [8]): 3 ± 1.7
Flow Cytometry IPR (platelets; [9]): 94 ± 3
Flow Cytometry PR (platelets; [9]): 1.5 ± 0.5
Flow Cytometry IPR (platelets; Study Day 5, 1.0 h, All): 92 ± 4
Flow Cytometry PR (platelets; Study Day 5, 1.0 h, All): 4.1 ± 2.7
Flow Cytometry IPR (platelets; [10]): 91 ± 3
Flow Cytometry PR (platelets; [10]): 3.5 ± 1.4
Flow Cytometry IPR (platelets; [11]): 93 ± 5
Flow Cytometry PR (platelets; [11]): 4.7 ± 3.6
Flow Cytometry IPR (platelets; Study Day 5, 2.0 h, All): 95 ± 3
Flow Cytometry PR (platelets; Study Day 5, 2.0 h, All): 2.8 ± 1.3
Flow Cytometry IPR (platelets; [12]): 93 ± 3
Flow Cytometry PR (platelets; [12]): 2.7 ± 1.2
Flow Cytometry IPR (platelets; [13]): 96 ± 2
Flow Cytometry PR (platelets; [13]): 2.8 ± 1.5
platelet function returns to normal after drug termination (platelet function): 30 to 60 min
Thrombocytopenia ([1]; 48-hour, safety population): 2 (0.1) no. (%)
Odds Ratio (95% CI): ACUITY criteria Major bleeding [1, 14]: 1.607 (1.232, 2.096)
Odds Ratio (95% CI): ACUITY criteria Minor bleeding [1, 14]: 1.335 (1.120, 1.592)
Odds Ratio (95% CI): Access site bleeding requiring radiologic or surgical intervention [1, 14]: 0.796 (0.314, 2.019)
Odds Ratio (95% CI): GUSTO criteria Moderate bleeding [1, 14]: 1.536 (0.762, 3.093)
Odds Ratio (95% CI): GUSTO criteria Severe/life-threatening bleeding [1, 14]: 1.495 (0.531, 4.205)
Odds Ratio (95% CI): Hematoma <5 cm at puncture site [1, 14]: 1.270 (0.992, 1.626)
Odds Ratio (95% CI): Hematoma ≧5 cm at puncture site [1, 14]: 1.640 (1.214, 2.216)
Odds Ratio (95% CI): Hemodynamic compromise [1, 14]: 1.395 (0.442, 4.400)
Odds Ratio (95% CI): Intracranial hemorrhage [1, 14]: 1.992 (0.180, 21.978)
Odds Ratio (95% CI): Oozing at puncture site [1, 14]: 1.385 (1.052, 1.825)
rates of red blood cell transfusion ([1]; 48 hours): 0.9%
incidence of dyspnea ([1]; human, in vivo, 48 h): 1.4%
rate of arrhythmia ([1]; human, in vivo, 48 h): 2.3%
rate of GUSTO-defined severe bleeding (primary safety end point) ([2]; 48 hours): 0.16%
BARC criteria Type 3 OR [2, 15]: 1.69
BARC criteria Type 3a OR [2, 15]: 2.75
BARC criteria Type 3b OR [2, 15]: 1.12
BARC criteria Type 3c OR [2, 15]: 2.00
BARC criteria Type 3 [2, 16]: 22/5529
BARC criteria Type 3a [2, 16]: 11/5529
BARC criteria Type 3b [2, 16]: 9/5529
BARC criteria Type 3c [2, 16]: 2/5529
BARC criteria Type 3 [2, 17]: (0.4)
BARC criteria Type 3a [2, 17]: (0.2)
BARC criteria Type 3b [2, 17]: (0.2)
BARC criteria Type 3c [2, 17]: (0.0)
ACUITY criteria Major bleeding OR [2, 18]: 1.72
ACUITY criteria Major without ≧ 5 cm hematoma OR [2, 18]: 1.62
ACUITY criteria Minor bleeding OR [2, 18]: 1.42
ACUITY criteria Major bleeding [2, 19]: 235/5529
ACUITY criteria Major without ≧ 5 cm hematoma [2, 19]: 42/5529
ACUITY criteria Minor bleeding [2, 19]: 653/5529
ACUITY criteria Major bleeding [2, 20]: (4.3)
ACUITY criteria Major without ≧ 5 cm hematoma [2, 20]: (0.8)
ACUITY criteria Minor bleeding [2, 20]: (11.8)
odds ratio, GUSTO-defined severe bleeding ([2]; 48 hours, cangrelor vs clopidogrel): 1.50
GUSTO-defined moderate bleeding, Odds Ratio (95% CI) [2, 21]: 1.69 (0.85-3.37)
GUSTO-defined severe or life-threatening bleeding, Odds Ratio (95% CI) [2, 21]: 1.50 (0.53-4.22)
GUSTO-defined severe or moderate bleeding, Odds Ratio (95% CI) [2, 21]: 1.63 (0.92-2.90)
TIMI-defined major bleeding, Odds Ratio (95% CI) [2, 21]: 1.00 (0.29)-3.45)
TIMI-defined major or minor bleeding, Odds Ratio (95% CI) [2, 21]: 1.75 (0.73-4.18)
TIMI-defined minor bleeding, Odds Ratio (95% CI) [2, 21]: 3.00 (0.81-11.10)
Any blood transfusion, Odds Ratio (95% CI) ([2]; 48 hours, safety population, Cangrelor vs Clopidogrel): 1.56 (0.83-2.93)
adverse events that led to discontinuation of the study drug ([2]; in vivo): 0.5%
rate of adverse events related to treatment ([2]; in vivo): 20.2%
transient dyspnea ([2]; in vivo): 1.2%
Agitation (Psychiatric disorders) ([2]; 48 hours, safety population): (0.2) %
Chest Pain (General disorders and administration site conditions) ([2]; 48 hours, safety population): (1.0) %
Diarrhea (Gastrointestinal disorders) ([2]; 48 hours, safety population): (0.3) %
Dyspnea (Respiratory, thoracic, and mediastinal disorders) ([2]; 48 hours, safety population): (1.2) %
Procedural Pain (Injury, poisoning, and procedural complications) ([2]; 48 hours, safety population): (0.1) %
Agitation (Psychiatric disorders) [2, 22]: 11/5529
Chest Pain (General disorders and administration site conditions) [2, 22]: 55/5529
Diarrhea (Gastrointestinal disorders) [2, 22]: 15/5529
Dyspnea (Respiratory, thoracic, and mediastinal disorders) [2, 22]: 64/5529
Procedural Pain (Injury, poisoning, and procedural complications) [2, 22]: 4/5529

Source: patent US8680052B1, “Methods of treating, reducing the incidence of, and/or preventing ischemic events” (The Medicines Company, priority 2013, dated 2014)
